According to patent US12421254B2, “KRAS modulators and uses thereof” (Quanta Therapeutics, Inc., priority 2023, dated 2025):
Read-outs that look alike come from different tables or passages of the source.

How the values were obtained:
[1] = target: GST-tagged KRAS-G12D (2-169) (Homo sapiens, UniProt P01116, G12D); test: Nucleotide exchange assay (NEA), SOS-mediated, HTRF, KRAS G12D; type: biochemical; settings: IC50 extracted at 30 min, 20 nM SOScat
Method in brief: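 Compound preincubated 1 h at RT with 0.25 nM GST-KRAS-G12D (2-169) and anti-GST Tb donor, then 20 nM SOS1cat (564-1049) and 150 nM GTP-DY-647P1 added; pH 7.3 HEPES buffer with MgCl2 and DTT. HTRF monitored at RT; % inhibition versus DMSO and no-SOS blank, 4-parameter IC50 taken at 30 min.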

[2] = target: GST-tagged KRAS-G12V (2-169) (Homo sapiens, UniProt P01116, G12V); test: Nucleotide exchange assay (NEA), SOS-mediated, HTRF, KRAS G12V; type: biochemical; settings: Table 4; IC50 extracted at 90 min; 80 nM SOS
Chain of GST-tagged KRAS-G12V (2-169) (P01116 2-169 isoform P01116-2 G12V): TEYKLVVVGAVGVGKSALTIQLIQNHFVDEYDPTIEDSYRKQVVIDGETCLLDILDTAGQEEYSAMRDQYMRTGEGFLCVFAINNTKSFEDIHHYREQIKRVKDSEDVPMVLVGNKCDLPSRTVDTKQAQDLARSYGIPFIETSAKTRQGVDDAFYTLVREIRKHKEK
Method in brief: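 GST-KRAS-G12V (2-169), 0.25 nM, pre-incubated 1 h at RT with compound, then SOS1cat (564-1049) 80 nM and GTP-DY-647P1 150 nM added in HEPES pH 7.3 buffer with MgCl2 and DTT. HTRF via anti-GST Tb cryptate read over 90 min; IC50 from 4-parameter fit at 90 min, blanked to no-SOS reactions.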

KRAS G12D/RAF1 = target: T1, KRAS G12D/RAF1 (Homo sapiens, UniProt P01116, G12D); test: Protein-protein interaction (PPI) HTRF assay KRAS G12D/RAF1; type: binding; settings: Table 2
T1 construct: KRAS (1-169) proteins were expressed in BL21 (DE3)-CodonPlus E. coli; His6-MBP (N, cleaved yes)
T1 sequence (P01116 with tags, fused parts or gaps isoform P01116-2 G12D): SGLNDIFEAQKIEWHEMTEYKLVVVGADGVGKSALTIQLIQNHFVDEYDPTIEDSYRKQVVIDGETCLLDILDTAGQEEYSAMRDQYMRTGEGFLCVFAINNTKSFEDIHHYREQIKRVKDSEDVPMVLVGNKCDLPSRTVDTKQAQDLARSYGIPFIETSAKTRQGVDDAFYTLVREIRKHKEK
Protocol: (§1) When RAS proteins are in the active GTP-bound conformation, they bind the effector protein RAF1 at the N-terminus Ras-binding domain (RBD, residues 52-131) (Tran, et al., 2021). Homogenous time resolved fluorescence (HTRF) was used to monitor the interaction between wt or mutant KRAS and RAF1 or wt NRAS and RAF1. Compounds were assayed in the presence of KRAS G12D/V and RAF1 versus wt KRAS to assess activity against mutant and w.t. KRAS. Similarly, compounds were then assayed in the presence of w.t. NRAS and RAF1 to assess RAS isoform selectivity. In all assay formats, His-tagged RAF1 protein was incubated with the HTRF donor, anti-6His Tb Cryptate gold (Cisbio 61DB10RDF), and biotinylated RAS proteins were incubated with the HTRF acceptor, streptavidin-d2 (CisBio 610SADLA). The intensity of the fluorescence signal emitted is proportional to binding between the two proteins. The donor solution was prepared by mixing 16 nM His-tagged RAF1 in protein dilution buffer with 1:100 anti-6His Tb cryptate in PPI-Terbium detection buffer. 16 nM biotinylated RAS protein was diluted into protein dilution buffer (50 mM Tris-HCl pH 7.5, 150 mM NaCl, 0.1 mM MgCl2, 1 mM TCEP, 0.005% Tween20) and mixed with 1:2000 Streptavidin-d2 diluted in PPI-Terbium detection buffer (CisBio 61DB10RDF). 50× compound in DMSO was mixed with 16 nM KRAS-acceptor solution and incubated for 30 minutes at room temperature. After compound pre-incubation with KRAS, the RAF1 donor solution was added to the KRAS-acceptor solution and incubated for 1 hour at room temperature. The fluorescence signal emitted was monitored at 665 nm and 615 nm using an Envision multimode plate reader. The HTRF ratio (665/615) was calculated and normalized to 0% inhibition in the absence of compound and 100% inhibition in the presence of untagged RAF1 protein. PPI KRAS G12D/RAF1, KRAS G12V/RAF1, w.t. KRAS/RAF1 and NRAS/RAF1 IC50 (uM) values of selected compounds are depicted in Table 3 and Table 4 with compounds having a value <0.1 uM as ++++; ≥0.1 uM to 1 uM as +++; ≥1 uM to 10 uM as ++; ≥10 uM to 100 uM as +; and ≥100 uM as NA.

KRAS G12V/RAF1 = target: T2, KRAS G12V/RAF1 (Homo sapiens, UniProt P01116, G12V); test: Protein-protein interaction (PPI) HTRF assay KRAS G12V/RAF1; type: binding; settings: Table 3
T2 construct: KRAS (1-169) proteins were expressed in BL21 (DE3)-CodonPlus E. coli; His6-MBP (N, cleaved yes)
T2 sequence (P01116 with tags, fused parts or gaps isoform P01116-2 G12V): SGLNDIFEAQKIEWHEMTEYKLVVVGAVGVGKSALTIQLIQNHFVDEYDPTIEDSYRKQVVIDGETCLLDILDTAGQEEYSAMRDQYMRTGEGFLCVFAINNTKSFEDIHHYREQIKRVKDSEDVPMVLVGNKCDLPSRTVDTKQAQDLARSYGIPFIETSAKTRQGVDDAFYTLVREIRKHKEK
Protocol: as §1

w.t. KRAS/RAF1 = target: T3, w.t. KRAS/RAF1 (Homo sapiens, UniProt P01116); test: Protein-protein interaction (PPI) HTRF assay w.t. KRAS/RAF1; type: binding; settings: Table 3; wt KRAS/RAF1
T3 construct: KRAS (1-169) proteins were expressed in BL21 (DE3)-CodonPlus E. coli; His6-MBP (N, cleaved yes)
T3 sequence (P01116 with tags, fused parts or gaps isoform P01116-2): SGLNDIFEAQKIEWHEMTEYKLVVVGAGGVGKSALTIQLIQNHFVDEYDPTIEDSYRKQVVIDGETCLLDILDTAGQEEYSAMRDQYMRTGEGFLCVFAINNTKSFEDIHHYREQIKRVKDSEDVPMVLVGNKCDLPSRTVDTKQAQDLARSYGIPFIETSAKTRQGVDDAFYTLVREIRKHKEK
Protocol: as §1

phospho-ERK in AGS cells = test: pERK In Cell Western (ICW) assay (Method B), AGS; type: cell-based; settings: Homo sapiens, Table 2, 3 hours
Protocol: pERK ICW is a high throughput screening assay to evaluate the cellular potency of mutant KRAS small molecule inhibitors. KRAS mutant cell lines AGS, GP2D (KRAS-G12D) as well as SW620 (KRAS-G12V) were purchased from ATCC and maintained respectively in RPMI/DMEM/RPMI medium supplemented with 10% fetal bovine serum.
Cells grown in exponential phase were trypsinized, resuspended in fresh media, and viable cells were counted using a cell counter with Trypan Blue (BioRad TC20). Cells were seeded into 384-well plate (Greiner 781091) at density of 5,000 cells/well for AGS and 10,000 cells/well for GP2D/SW620 and allowed to grow overnight in a 37° C. CO2 incubator. The next day, compounds were dispensed into wells with a ½ log, 9-point serial dilution using a Tecan D300e dispenser and incubated for 3 hours in a 37° C. CO2 incubator. Cells were then fixed with paraformaldehyde (Electron Microscopy Sciences, 15710, 4% final concentration) for 30 min, permeabilized with wash buffer (1×PBS+0.1% Triton X-100) for 30 min and blocked with Odyssey blocking buffer (Li—COR 927-70001) for 1 hour, all at room temperature (RT). Phospho-ERK antibody (CST 4370L) was diluted 1:500 in Odyssey T20 (PBS) antibody diluent (Li—COR 927-75001) and incubated with cells overnight at 4° C. The next day, plates were washed 5× with wash buffer, incubated with IRDye 800 CW, Goat anti-Rabbit secondary antibody (Li—COR 926-32211, 1:800) and DRAQ5 (CST 4084L, 1:5,000) diluted in Odyssey T20 (PBS) antibody diluent for 1 hour, washed 5×, and imaged on an Odyssey CLx imaging system.
For data analysis, signal intensities from 800 (phosphor-ERK) and 700 (DRAQ5) channels were extracted, and phospho-ERK signals were normalized to DRAQ5 signals for each well and percent of blank control values were computed. Data were then imported into Graphpad Prism to compute half-maximal inhibitory concentrations (IC50) using a 4-parameter variable slope model. Z-factor for each plate was computed from signals derived from wells treated with either DMSO or 5 μM of control compound. AGS pERK ICW (Method B) IC50 (uM) values of selected compounds are depicted in Table 2 with compounds having a value ≥0.001 uM to 0.01 uM as ++++; ≥0.01 uM to 0.1 uM as +++; ≥0.1 uM to 1 uM as ++; ≥1 uM to 10 uM as + and ≥10 uM as NA.

[3] = tested on: phospho-ERK in GP2D (KRAS-G12D) cells; test: pERK In Cell Western (ICW) assay (Method B), GP2D; type: cell-based; settings: GP2d, 3 h, Table 4
Method in brief: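 Here IC50 reflects phospho-ERK suppression after 3 h compound exposure at 37 °C in cells grown in 10% FBS medium. Signal is normalized to DRAQ5 DNA stain and to blank control wells.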

[4] = Table 2, read-out: NEA-G12D (uM) IC50
[5] = Table 4, read-out: NEA G12D IC50

Chain of GST-tagged KRAS-G12D (2-169) (P01116 2-169 isoform P01116-2 G12D): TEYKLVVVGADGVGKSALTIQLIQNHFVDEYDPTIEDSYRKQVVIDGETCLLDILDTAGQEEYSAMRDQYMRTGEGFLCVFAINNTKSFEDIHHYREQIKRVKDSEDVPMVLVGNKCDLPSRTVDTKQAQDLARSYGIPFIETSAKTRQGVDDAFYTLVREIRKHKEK

Structure (SMILES)	IC50 [1, 4] [µM]	IC50 [1, 5] [µM]	IC50 [2] [nM]	IC50 (KRAS G12D/RAF1) [µM]	IC50 (KRAS G12V/RAF1) [µM]	IC50 (w.t. KRAS/RAF1) [µM]	IC50 (phospho-ERK in AGS cells) [µM]	IC50 [3] [nM]
CC1(CO)CCCN(c2nc(OC[C@@]34CCCN3C[C@H](F)C4)nc(N3CC4(CCc5sc(N)c(C#N)c54)C3)n2)C1 (stereo partly drawn) [Compound 18, 2-amino-1′-[4-[[(2R)-2-fluoro-1,2,3,5,6,7-hexahydropyrrolizin-8-yl]methoxy]-6-[3-(hydroxymethyl)-3-methyl-1-piperidyl]-1,3,5-triazin-2-yl]spiro[5,6-dihydrocyclopenta[b]thiophene-4,3′-azetidine]-3-carbonitrile]	0.01 to 0.1	0.01 to 0.1	10 to 100	1 to 10	1 to 10	1 to 10	1 to 10	1000 to 20000
C[C@]1(O)CN(c2nc(OC[C@@]34CCCN3C[C@H](F)C4)nc(N3CC4(CCc5sc(N)c(C#N)c54)C3)n2)CC[C@H]1O [Compound 21, 2-amino-1′-[4-[(3S,4R)-3,4-dihydroxy-3-methyl-1-piperidyl]-6-[[(2R,8S)-2-fluoro-1,2,3,5,6,7-hexahydropyrrolizin-8-yl]methoxy]-1,3,5-triazin-2-yl]spiro[5,6-dihydrocyclopenta[b]thiophene-4,3′-azetidine]-3-carbonitrile]	0.01 to 0.1	0.01 to 0.1	10 to 100	0.1 to 1	1 to 10	0.1 to 1	0.1 to 1	100 to 1000
N#Cc1c(N)sc2c1C1(CC2)CCN(c2nc(OC[C@@]34CCCN3C[C@H](F)C4)nc(N3CCCC(C#N)CC3)n2)C1 (stereo partly drawn) [Compound 12, 2-amino-1′-[4-(4-cyanoazepan-1-yl)-6-[[(2R,8S)-2-fluoro-1,2,3,5,6,7-hexahydropyrrolizin-8-yl]methoxy]-1,3,5-triazin-2-yl]spiro[5,6-dihydrocyclopenta[b]thiophene-4,3′-pyrrolidine]-3-carbonitrile]	0.1 to 1	0.1 to 1	100 to 1000	10 to 100	10 to 100	–	–	–
N#Cc1c(N)sc2c1C1(CC2)CN(c2nc(OC[C@@]34CCCN3C[C@H](F)C4)nc(N3CCCC(C#N)CC3)n2)C1 (stereo partly drawn) [Compound 8, 2-amino-1′-[4-(4-cyanoazepan-1-yl)-6-[[(2R,8S)-2-fluoro-1,2,3,5,6,7-hexahydropyrrolizin-8-yl]methoxy]-1,3,5-triazin-2-yl]spiro[5,6-dihydrocyclopenta[b]thiophene-4,3′-azetidine]-3-carbonitrile]	0.01 to 0.1	–	–	1 to 10	1 to 10	1 to 10	–	–
N#Cc1c(N)sc2c1C1(CC2)CN(c2nc(OC[C@@]34CCCN3C[C@H](F)C4)nc(N3CCC[C@@H](CO)C3)n2)C1 [Compound 20, 2-amino-1′-[4-[[(2R,8S)-2-fluoro-1,2,3,5,6,7-hexahydropyrrolizin-8-yl]methoxy]-6-[(3R)-3-(hydroxymethyl)-1-piperidyl]-1,3,5-triazin-2-yl]spiro[5,6-dihydrocyclopenta[b]thiophene-4,3′-azetidine]-3-carbonitrile]	0.01 to 0.1	0.01 to 0.1	10 to 100	10 to 100	10 to 100	–	1 to 10	1000 to 20000
N#Cc1c(N)sc2c1C1(CC2)CCN(c2nc(OCC3(CN4CCOCC4)CC3)nc(N3C[C@H]4CC[C@@H](C3)N4)n2)C1 (stereo partly drawn) [Compound 9, 2-amino-1′-[4-[(1R,5S)-3,8-diazabicyclo[3.2.1]octan-3-yl]-6-[[1-(morpholinomethyl)cyclopropyl]methoxy]-1,3,5-triazin-2-yl]spiro[5,6-dihydrocyclopenta[b]thiophene-4,3′-pyrrolidine]-3-carbonitrile]	< 0.01	< 0.01	1000 to 20000	1 to 10	10 to 100	–	0.1 to 1	10 to 100
CN(CC1(C#N)CC1)c1nc(OC[C@@]23CCCN2C[C@H](F)C3)nc(N2CC3(CCc4sc(N)c(C#N)c43)C2)n1 [Compound 15, 2-amino-1′-[4-[(1-cyanocyclopropyl)methyl-methyl-amino]-6-[[(2R,8S)-2-fluoro-1,2,3,5,6,7-hexahydropyrrolizin-8-yl]methoxy]-1,3,5-triazin-2-yl]spiro[5,6-dihydrocyclopenta[b]thiophene-4,3′-azetidine]-3-carbonitrile]	0.1 to 1	0.1 to 1	10 to 100	1 to 10	1 to 10	1 to 10	–	–
CC(C#N)COc1nc(OC[C@@]23CCCN2C[C@H](F)C3)nc(N2CC3(CCc4sc(N)c(C#N)c43)C2)n1 (stereo partly drawn) [Compound 17, 2-amino-1′-[4-(2-cyanopropoxy)-6-[[(2R,8S)-2-fluoro-1,2,3,5,6,7-hexahydropyrrolizin-8-yl]methoxy]-1,3,5-triazin-2-yl]spiro[5,6-dihydrocyclopenta[b]thiophene-4,3′-azetidine]-3-carbonitrile]	0.1 to 1	0.1 to 1	10 to 100	10 to 100	10 to 100	–	–	–
